Results taken from patent publication US20070128217A1 (priority 2003, published 2007).

Experiments:
[1] = tested on: antibodies in sera from SARS patients (sera 1a, 1b, 2, 6, 37, 62, London, SARS-yellow, SARS-green); format: binding, human; parameters: Binding of serum 6 to linear peptides of protein X1 of SARS-CoV Urbani / Binding of serum 37 to linear peptides of protein X1 of SARS-CoV Urbani / Binding of serum 6 to looped/cyclic peptide (PEPSCAN-ELISA) / Binding of serum 37 to looped/cyclic peptide (PEPSCAN-ELISA) / Binding of serum 37 to looped/cyclic peptides of protein X1 of SARS-CoV Urbani / Binding of serum 6 to linear peptides of protein X2 / Binding of serum 37 to linear peptides of protein X2 / Binding of serum 37 to looped/cyclic peptides of protein X2 of SARS-CoV Urbani / Binding of serum 6 to linear peptides of protein M of SARS-CoV Urbani / Binding of serum 37 to linear peptides of protein M of SARS-CoV Urbani / Binding of serum 6 to looped/cyclic peptides of protein M of SARS-CoV Urbani / Binding of serum 37 to looped/cyclic peptides of protein M of SARS-CoV Urbani / Binding of serum 6 to linear peptides of protein X3 of SARS-CoV Urbani / Binding of serum 37 to linear peptides of protein X3 of SARS-CoV Urbani / Binding of serum 37 to looped/cyclic peptides of protein X3 of SARS-CoV Urbani / Binding of serum 6 to linear peptides of protein X4 of SARS-CoV Urbani / Binding of serum 37 to linear peptides of protein X4 of SARS-CoV Urbani / Binding of serum 37 to looped/cyclic peptides of protein X4 of SARS-CoV Urbani / Binding of serum 6 to linear peptides of protein X5 of SARS-CoV Urbani / Binding of serum 37 to linear peptides of protein X5 of SARS-CoV Urbani / Binding of serum 37 to looped/cyclic peptides of protein X5 of SARS-CoV Urbani / Binding of serum 6 to linear peptides of protein N of SARS-CoV Urbani / Binding of serum 37 to linear peptides of protein N of SARS-CoV Urbani / Binding of serum 6 to linear peptide (PEPSCAN-ELISA) / Binding of serum 1a to looped/cyclic peptides of protein N of SARS-CoV Urbani / Binding of serum 1b to looped/cyclic peptides of protein N of SARS-CoV Urbani / Binding of serum 2 to looped/cyclic peptides of protein N of SARS-CoV Urbani / Binding of serum 6 to looped/cyclic peptides of protein N of SARS-CoV Urbani / Binding of serum 37 to looped/cyclic peptides of protein N of SARS-CoV Urbani / Binding of serum 62 to looped/cyclic peptides of protein N of SARS-CoV Urbani / Binding of serum London to looped/cyclic peptides of protein N of SARS-CoV Urbani / Binding of serum SARS-green to looped/cyclic peptides of protein N of SARS-CoV Urbani: unit not given here
[2] = tested on: rabbit serum obtained by immunizing a rabbit with the SARS-CoV strain Frankfurt 1; format: binding; parameters: Binding of a rabbit serum to linear peptides / Binding of a rabbit serum to looped peptides / Rabbit serum linear peptides / Rabbit serum looped peptides / Binding of a rabbit serum to linear peptides of protein N of SARS-CoV Urbani (Rabbit serum linear peptides) / Binding of a rabbit serum to looped/cyclic peptides of protein N of SARS-CoV Urbani (Rabbit serum looped peptides): unit not given here
[3] = tested on: control sera (pooled serum of ten healthy LUMC hospital workers; commercial negative donor pooled serum from the Dutch bloodbank); format: binding, human; parameters: Binding of Control serum LUMC to linear peptides / Binding of Control serum Blood-bank to linear peptides / Binding of Control serum LUMC to looped peptides / Binding of Control Serum Blood-Bank to Looped peptides / Binding of Control serum LUMC to linear peptides of the protein M of SARS-CoV Urbani / Binding of Control serum Blood-bank to linear peptides of the protein M of SARS-CoV Urbani / Binding of Control serum LUMC to looped peptides of the protein M of SARS-CoV Urbani / Binding of Control Serum Blood-Bank to Looped peptides of the protein M of SARS-CoV Urbani: unit not given here

FACADGTRHTYQLRA
Binding of serum 1a to linear peptides of protein X4 of SARS-CoV Urbani [1]: 0.7 | Binding of serum 1a to looped/cyclic peptides of protein X4 of SARS-CoV Urbani [1]: 0.7 | Binding of serum 1b to linear peptides of protein X4 of SARS-CoV Urbani [1]: 0.4 | Binding of serum 1b to looped/cyclic peptides of protein X4 of SARS-CoV Urbani [1]: 0.6 | Binding of serum 2 to linear peptides of protein X4 of SARS-CoV Urbani [1]: 0.4 | Binding of serum 2 to looped/cyclic peptides of protein X4 of SARS-CoV Urbani [1]: 0.6 | Binding of serum 6 to linear peptides of protein X4 of SARS-CoV Urbani [1]: 0.4 | Binding of serum 6 to looped/cyclic peptides of protein X4 of SARS-CoV Urbani [1]: 0.3 | Binding of serum 37 to linear peptides of protein X4 of SARS-CoV Urbani [1]: 0.6 | Binding of serum 37 to looped/cyclic peptides of protein X4 of SARS-CoV Urbani [1]: 0.7 | Binding of serum 62 to linear peptides of protein X4 of SARS-CoV Urbani [1]: 0.7 | Binding of serum 62 to looped/cyclic peptides of protein X4 of SARS-CoV Urbani [1]: 0.7 | Binding of serum London to linear peptides of protein X4 of SARS-CoV Urbani [1]: 0.8 | Binding of serum London to looped/cyclic peptides of protein X4 of SARS-CoV Urbani [1]: 0.4 | Binding of serum SARS-green to linear peptides of protein X4 of SARS-CoV Urbani [1]: 0.5 | Binding of serum SARS-green to looped/cyclic peptides of protein X4 of SARS-CoV Urbani [1]: 0.8 | Binding of serum SARS-yellow to linear peptides of protein X4 of SARS-CoV Urbani [1]: 0.2 | Binding of serum SARS-yellow to looped/cyclic peptides of protein X4 of SARS-CoV Urbani [1]: 0.3 | Recognition of the peptide by the rabbit serum [2]: recognized | Binding of Control Serum Blood-Bank to Looped peptides [3]: 0.3 | Binding of Control serum Blood-bank to linear peptides [3]: 0.7 | Binding of Control serum LUMC to linear peptides [3]: 0.4 | Binding of Control serum LUMC to looped peptides [3]: 0.4

FALTCTSTHFAFACA
Binding of serum 1a to linear peptides of protein X4 of SARS-CoV Urbani [1]: 0.7 | Binding of serum 1a to looped/cyclic peptides of protein X4 of SARS-CoV Urbani [1]: 0.8 | Binding of serum 1b to linear peptides of protein X4 of SARS-CoV Urbani [1]: 0.5 | Binding of serum 1b to looped/cyclic peptides of protein X4 of SARS-CoV Urbani [1]: 0.5 | Binding of serum 2 to linear peptides of protein X4 of SARS-CoV Urbani [1]: 0.4 | Binding of serum 2 to looped/cyclic peptides of protein X4 of SARS-CoV Urbani [1]: 0.7 | Binding of serum 6 to linear peptides of protein X4 of SARS-CoV Urbani [1]: 0.5 | Binding of serum 6 to looped/cyclic peptides of protein X4 of SARS-CoV Urbani [1]: 0.5 | Binding of serum 37 to linear peptides of protein X4 of SARS-CoV Urbani [1]: 0.7 | Binding of serum 37 to looped/cyclic peptides of protein X4 of SARS-CoV Urbani [1]: 0.6 | Binding of serum 62 to linear peptides of protein X4 of SARS-CoV Urbani [1]: 0.7 | Binding of serum 62 to looped/cyclic peptides of protein X4 of SARS-CoV Urbani [1]: 0.7 | Binding of serum London to linear peptides of protein X4 of SARS-CoV Urbani [1]: 0.7 | Binding of serum London to looped/cyclic peptides of protein X4 of SARS-CoV Urbani [1]: 0.3 | Binding of serum SARS-green to linear peptides of protein X4 of SARS-CoV Urbani [1]: 0.5 | Binding of serum SARS-green to looped/cyclic peptides of protein X4 of SARS-CoV Urbani [1]: 0.5 | Binding of serum SARS-yellow to linear peptides of protein X4 of SARS-CoV Urbani [1]: 0.6 | Binding of serum SARS-yellow to looped/cyclic peptides of protein X4 of SARS-CoV Urbani [1]: 0.7 | Rabbit serum linear peptides [2]: 0.6 | Rabbit serum looped peptides [2]: 0.4 | Binding of Control Serum Blood-Bank to Looped peptides [3]: 0.7 | Binding of Control serum Blood-bank to linear peptides [3]: 0.6 | Binding of Control serum LUMC to linear peptides [3]: 0.6 | Binding of Control serum LUMC to looped peptides [3]: 0.6

FARTRSMWSFNPETN
Binding of serum 1a to linear peptides of protein M of SARS-CoV Urbani [1]: 0.8 | Binding of serum 1a to looped/cyclic peptides of protein M of SARS-CoV Urbani [1]: 0.9 | Binding of serum 1b to linear peptides of protein M of SARS-CoV Urbani [1]: 0.7 | Binding of serum 1b to looped/cyclic peptides of protein M of SARS-CoV Urbani [1]: 0.6 | Binding of serum 2 to linear peptides of protein M of SARS-CoV Urbani [1]: 0.7 | Binding of serum 2 to looped/cyclic peptides of protein M of SARS-CoV Urbani [1]: 0.6 | Binding of serum 6 to linear peptides of protein M of SARS-CoV Urbani [1]: 0.4 | Binding of serum 6 to looped/cyclic peptides of protein M of SARS-CoV Urbani [1]: 0.7 | Binding of serum 37 to linear peptides of protein M of SARS-CoV Urbani [1]: 0.9 | Binding of serum 37 to looped/cyclic peptides of protein M of SARS-CoV Urbani [1]: 0.9 | Binding of serum 62 to linear peptides of protein M of SARS-CoV Urbani [1]: 0.8 | Binding of serum 62 to looped/cyclic peptides of protein M of SARS-CoV Urbani [1]: 0.8 | Binding of serum London to linear peptides of protein M of SARS-CoV Urbani [1]: 0.4 | Binding of serum London to looped/cyclic peptides of protein M of SARS-CoV Urbani [1]: 0.3 | Binding of serum SARS-green to linear peptides of protein M of SARS-CoV Urbani [1]: 0.3 | Binding of serum SARS-green to looped/cyclic peptides of protein M of SARS-CoV Urbani [1]: 0.0 | Binding of serum SARS-yellow to linear peptides of protein M of SARS-CoV Urbani [1]: 0.1 | Binding of serum SARS-yellow to looped/cyclic peptides of protein M of SARS-CoV Urbani [1]: 0.5 | Rabbit serum linear peptides [2]: 0.4 | Rabbit serum looped peptides [2]: 0.3 | Binding of Control Serum Blood-Bank to Looped peptides of the protein M of SARS-CoV Urbani [3]: 0.8 | Binding of Control serum Blood-bank to linear peptides of the protein M of SARS-CoV Urbani [3]: 0.9 | Binding of Control serum LUMC to linear peptides of the protein M of SARS-CoV Urbani [3]: 0.5 | Binding of Control serum LUMC to looped peptides of the protein M of SARS-CoV Urbani [3]: 0.6

FLQCINACRIIMRCW
Binding of serum 1a to linear peptides of protein X1 of SARS-CoV Urbani [1]: 0.8 | Binding of serum 1a to looped/cyclic peptide (PEPSCAN-ELISA) [1]: 0.6 | Binding of serum 1b to linear peptides of protein X1 of SARS-CoV Urbani [1]: 0.6 | Binding of serum 1b to looped/cyclic peptide (PEPSCAN-ELISA) [1]: 0.4 | Binding of serum 2 to linear peptides of protein X1 of SARS-CoV Urbani [1]: 0.6 | Binding of serum 2 to looped/cyclic peptide (PEPSCAN-ELISA) [1]: 0.5 | Binding of serum 6 to linear peptides of protein X1 of SARS-CoV Urbani [1]: 0.7 | Binding of serum 6 to looped/cyclic peptide (PEPSCAN-ELISA) [1]: 0.7 | Binding of serum 37 to linear peptides of protein X1 of SARS-CoV Urbani [1]: 0.7 | Binding of serum 37 to looped/cyclic peptide (PEPSCAN-ELISA) [1]: 0.6 | Binding of serum 62 to linear peptides of protein X1 of SARS-CoV Urbani [1]: 0.6 | Binding of serum 62 to looped/cyclic peptide (PEPSCAN-ELISA) [1]: 0.6 | Binding of serum London to linear peptides of protein X1 of SARS-CoV Urbani [1]: 0.3 | Binding of serum London to looped/cyclic peptide (PEPSCAN-ELISA) [1]: 1.0 | Binding of serum SARS-green to linear peptides of protein X1 of SARS-CoV Urbani [1]: 0.3 | Binding of serum SARS-green to looped/cyclic peptide (PEPSCAN-ELISA) [1]: 0.2 | Binding of serum SARS-yellow to linear peptides of protein X1 of SARS-CoV Urbani [1]: 0.4 | Binding of serum SARS-yellow to looped/cyclic peptide (PEPSCAN-ELISA) [1]: 0.6 | Binding of a rabbit serum to linear peptides [2]: 0.1 | Binding of a rabbit serum to looped peptides [2]: 0.8 | Binding of Control Serum Blood-Bank to Looped peptides [3]: 0.6 | Binding of Control serum Blood-bank to linear peptides [3]: 0.8 | Binding of Control serum LUMC to linear peptides [3]: 0.9 | Binding of Control serum LUMC to looped peptides [3]: 0.6

FLYIIKLVFLWLLWP
Binding of serum 1a to linear peptides of protein M of SARS-CoV Urbani [1]: 0.8 | Binding of serum 1b to linear peptides of protein M of SARS-CoV Urbani [1]: 0.5 | Binding of serum 2 to linear peptides of protein M of SARS-CoV Urbani [1]: 1.0 | Binding of serum 6 to linear peptides of protein M of SARS-CoV Urbani [1]: 0.3 | Binding of serum 37 to linear peptides of protein M of SARS-CoV Urbani [1]: 0.8 | Binding of serum 62 to linear peptides of protein M of SARS-CoV Urbani [1]: 0.9 | Binding of serum London to linear peptides of protein M of SARS-CoV Urbani [1]: 0.3 | Binding of serum SARS-green to linear peptides of protein M of SARS-CoV Urbani [1]: 0.3 | Binding of serum SARS-yellow to linear peptides of protein M of SARS-CoV Urbani [1]: 0.1 | Recognition of the peptide by sera of SARS-CoV infected individuals, and form (linear, looped/cyclic) in which it is recognized [1]: recognized in looped/cyclic form | Rabbit serum linear peptides [2]: 0.4 | Rabbit serum looped peptides [2]: 0.4 | Binding of Control Serum Blood-Bank to Looped peptides of the protein M of SARS-CoV Urbani [3]: 0.8 | Binding of Control serum Blood-bank to linear peptides of the protein M of SARS-CoV Urbani [3]: 0.8 | Binding of Control serum LUMC to linear peptides of the protein M of SARS-CoV Urbani [3]: 0.4 | Binding of Control serum LUMC to looped peptides of the protein M of SARS-CoV Urbani [3]: 0.9
